From patent publication US10316028B2, “Orexin receptor antagonists” (Heptares Therapeutics Limited, priority 2012, dated 2019)

biological target: T1, human Orexin-2 receptor (Homo sapiens, UniProt O43614); assay: 3H-EMPA radioligand binding assay; conditions: 3H-EMPA displacement, membranes of HEK293 cells transfected with human Orexin-2 receptor; KI by Cheng-Prussoff; read-out: OX2 pKi ave (converted)
T1 construct: expressed in transfected cells; host or cells: HEK293 cells (transient transfection, Genejuice); membranes
T1 sequence (O43614 1-444): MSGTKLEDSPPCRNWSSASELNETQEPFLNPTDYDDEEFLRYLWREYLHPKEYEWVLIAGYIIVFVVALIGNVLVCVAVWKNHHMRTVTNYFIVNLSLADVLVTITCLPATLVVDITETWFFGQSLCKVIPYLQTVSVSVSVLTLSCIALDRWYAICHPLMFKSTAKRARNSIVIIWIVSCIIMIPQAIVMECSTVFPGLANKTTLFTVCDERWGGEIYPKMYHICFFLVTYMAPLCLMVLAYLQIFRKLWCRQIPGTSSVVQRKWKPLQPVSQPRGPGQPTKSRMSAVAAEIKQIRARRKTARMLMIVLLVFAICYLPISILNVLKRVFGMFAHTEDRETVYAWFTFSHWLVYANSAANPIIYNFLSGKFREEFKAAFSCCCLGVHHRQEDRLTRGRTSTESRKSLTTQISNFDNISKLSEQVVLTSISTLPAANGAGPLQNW
Procedure: cDNA encoding the human Orexin-2 receptor was transfected into HEK293 cells using the transfection reagent Genejuice (Novagen). Forty-eight hours after transfection, cells were harvested and washed twice with ice cold phosphate-buffered saline. The pellet was resuspended in ice-cold buffer containing 20 mM Tris-HCl, pH 7.4, 1 mM EDTA and homogenised with an Ultraturax for 30 s at maximum speed. After centrifugation at 48,000 g for 30 min at 4° C., the pellet was resuspended and spun again. The final pellet was resuspended and frozen at −80° C. before use. Protein concentration was determined using the BCA protein assay method.
^3H-EMPA Radioligand Binding Assay
At the end of the incubation, membranes were filtered onto a unifilter, a 96-well white microplate with bonded GF/B filter pre-incubated with 0.5% polyethylenimine, with a Tomtec cell harvester and washed 4 times with distilled water. […] Radioactivity on the filter was counted (1 min) on a microbeta counter after addition of 50 µL of scintillation fluid. […] IC50 values were derived from the inhibition curve and the equilibrium dissociation constant (KI) values were calculated using the Cheng-Prussoff equation.

| SMILES | Ki [nM] |
| --- | --- |
| CSc1cccc(N2C(=O)N(CC3CCC3)c3ccccc3S2(=O)=O)c1 [Example 61, 4-(Cyclobutylmethyl)-2-[3-(methylsulfanyl)phenyl]-2H-1,2,4-benzothiadiazin-3(4H)-one 1,1-dioxide] | 269 |
| CSc1cccc(N2C(=O)N(CC3CCCCC3)c3ccccc3S2(=O)=O)c1 [Example 62, 4-(Cyclohexylmethyl)-2-[3-(methylsulfanyl)phenyl]-2H-1,2,4-benzothiadiazin-3(4H)-one 1,1-dioxide] | 871 |
| CSc1cccc(N2C(=O)N(C(C)c3ccccc3F)c3ccc(F)cc3S2(=O)=O)c1 (stereo not shown) [Example 63, 7-Fluoro-4-[1-(2-fluorophenyl)ethyl]-2-[3-(methylsulfanyl)phenyl]-2H-1,2,4-benzothiadiazin-3(4H)-one 1,1-dioxide] | 832 |
| O=C1N(Cc2c(F)cccc2Cl)c2ccccc2S(=O)(=O)N1CC1CCCCC1 [Example 64, 4-(2-Chloro-6-fluorobenzyl)-2-(cyclohexylmethyl)-2H-1,2,4-benzothiadiazin-3(4H)-one 1,1-dioxide] | 661 |
| N#Cc1ccc(CN2C(=O)N(Cc3c(F)cccc3F)c3ccccc3S2(=O)=O)cc1F [Example 65, 4-{[4-(2,6-Difluorobenzyl)-1,1-dioxido-3-oxo-3,4-dihydro-2H-1,2,4-benzothiadiazin-2-yl]methyl}-2-fluorobenzonitrile] | 200 |
| COc1cccc(CCN2C(=O)N(Cc3c(F)cccc3F)c3ccccc3S2(=O)=O)c1 [Example 66, 4-(2,6-Difluorobenzyl)-2-[2-(3-methoxyphenyl)ethyl]-2H-1,2,4-benzothiadiazin-3(4H)-one 1,1-dioxide] | 550 |
| COc1ccc(N2C(=O)N(Cc3ccccc3F)c3ccccc3S2(=O)=O)cc1OC [Example 67, 2-(3,4-Dimethoxyphenyl)-4-(2-fluorobenzyl)-2H-1,2,4-benzothiadiazin-3(4H)-one 1,1-dioxide] | 7.08 |
| COc1ccc(N2C(=O)N(Cc3c(Cl)cccc3Cl)c3ccccc3S2(=O)=O)cc1OC [Example 68, 4-(2,6-Dichlorobenzyl)-2-(3,4-dimethoxyphenyl)-2H-1,2,4-benzothiadiazin-3(4H)-one 1,1-dioxide] | 0.708 |
| COc1cc(OC)cc(N2C(=O)N(Cc3c(F)cccc3Cl)c3ccccc3S2(=O)=O)c1 [Example 69, 4-(2-Chloro-6-fluorobenzyl)-2-(3,5-dimethoxyphenyl)-2H-1,2,4-benzothiadiazin-3(4H)-one 1,1-dioxide] | 1.07 |
| COc1cc(OC)cc(N2C(=O)N(Cc3c(Cl)cccc3Cl)c3ccccc3S2(=O)=O)c1 [Example 70, 4-(2,6-Dichlorobenzyl)-2-(3,5-dimethoxyphenyl)-2H-1,2,4-benzothiadiazin-3(4H)-one 1,1-dioxide] | 2 |
| COc1ccc(N2C(=O)N(Cc3cccc(Cl)c3F)c3ccccc3S2(=O)=O)cc1OC [Example 71, 4-(3-Chloro-2-fluorobenzyl)-2-(3,4-dimethoxyphenyl)-2H-1,2,4-benzothiadiazin-3(4H)-one 1,1-dioxide] | 7.08 |
| COc1ccc(N2C(=O)N(Cc3ccc(Cl)cc3F)c3ccccc3S2(=O)=O)cc1OC [Example 72, 4-(4-Chloro-2-fluorobenzyl)-2-(3,4-dimethoxyphenyl)-2H-1,2,4-benzothiadiazin-3(4H)-one 1,1-dioxide] | 10.5 |
| O=C1N(Cc2c(F)cccc2Cl)c2ccccc2S(=O)(=O)N1c1cccc(SC(F)(F)F)c1 [Example 73, 4-(2-Chloro-6-fluorobenzyl)-2-{3-[(trifluoromethyl)sulfanyl]phenyl}-2H-1,2,4-benzothiadiazin-3(4H)-one 1,1-dioxide] | 2.09 |
| CSc1cccc(N2C(=O)N(Cc3c(F)cccc3Cl)c3ccc(F)cc3S2(=O)=O)c1 [Example 74, 4-(2-Chloro-6-fluorobenzyl)-7-fluoro-2-[3-(methylsulfanyl)phenyl]-2H-1,2,4-benzothiadiazin-3(4H)-one 1,1-dioxide] | 11.7 |
| O=C1N(Cc2c(F)cccc2F)c2ccccc2S(=O)(=O)N1c1cccc(SC(F)(F)F)c1 [Example 75, 4-(2,6-Difluorobenzyl)-2-{3-[(trifluoromethyl)sulfanyl]phenyl}-2H-1,2,4-benzothiadiazin-3(4H)-one 1,1-dioxide] | 8.32 |
| CSc1cccc(N2C(=O)N(Cc3c(F)cccc3Cl)c3cc(F)ccc3S2(=O)=O)c1 [Example 76, 4-(2-Chloro-6-fluorobenzyl)-6-fluoro-2-[3-(methylsulfanyl)phenyl]-2H-1,2,4-benzothiadiazin-3(4H)-one 1,1-dioxide] | 14.8 |
| COc1ccc(N2C(=O)N(Cc3c(C)cccc3C)c3ccccc3S2(=O)=O)cc1OC [Example 77, 4-(2,6-Dimethylbenzyl)-2-(3,4-methoxyphenyl)-2H-1,2,4-benzothiadiazin-3(4H)-one 1,1-dioxide] | 8.91 |
| COc1cc(N2C(=O)N(Cc3c(F)cccc3Cl)c3ccccc3S2(=O)=O)cc(OC)c1OC [Example 78, 4-(2-Chloro-6-fluorobenzyl)-2-(3,4,5-trimethoxyphenyl)-2H-1,2,4-benzothiadiazin-3(4H)-one 1,1-dioxide] | 4.07 |
| COc1ccc(N2C(=O)N(Cc3c(C)cccc3F)c3ccccc3S2(=O)=O)cc1OC [Example 79, 4-(2-Fluoro-6-methylbenzyl)-2-(3,4-methoxyphenyl)-2H-1,2,4-benzothiadiazin-3(4H)-one 1,1-dioxide] | 0.389 |

The remaining lines, values ahead:

| Ki [nM] | SMILES |
| --- | --- |
| 7.59 | COc1c(C)cc(N2C(=O)N(Cc3ccc(F)cc3Cl)c3ccccc3S2(=O)=O)cc1C [Example 80, 4-(2-Chloro-4-fluorobenzyl)-2-(4-methoxy-3,5-dimethylphenyl)-2H-1,2,4-benzothiadiazin-3(4H)-one 1,1-dioxide] |
| 0.0832 | COc1c(C)cc(N2C(=O)N(Cc3c(F)cccc3Cl)c3ccccc3S2(=O)=O)cc1C [Example 81, 4-(2-Chloro-6-fluorobenzyl)-2-(4-methoxy-3,5-dimethylphenyl)-2H-1,2,4-benzothiadiazin-3(4H)-one 1,1-dioxide] |
| 3.31 | Cc1cc(N2C(=O)N(Cc3c(F)cccc3Cl)c3ccccc3S2(=O)=O)cc(C)c1O [Example 82, 4-(2-Chloro-6-fluorobenzyl)-2-(4-hydroxy-3,5-dimethylphenyl)-2H-1,2,4-benzothiadiazin-3(4H)-one 1,1-dioxide] |
| 295 | CSc1cccc(N2C(=O)N(Cc3cc(C)nn3C)c3ccccc3S2(=O)=O)c1 [Example 83, 4-[(1,3-Dimethyl-1H-pyrazol-5-yl)methyl]-2-[3-(methylsulfanyl)phenyl]-2H-1,2,4-benzothiadiazin-3(4H)-one 1,1-dioxide] |
| 490 | COc1ccc(N2C(=O)N(Cc3c(C)ccnc3C)c3ccccc3S2(=O)=O)cc1OC [Example 84, 2-(3,4-Dimethoxyphenyl)-4-[(2,4-dimethylpyridin-3-yl)methyl]-2H-1,2,4-benzothiadiazin-3(4H)-one 1,1-dioxide] |
| 60.3 | COc1ccc(N2C(=O)N(Cc3c(F)cncc3F)c3ccccc3S2(=O)=O)cc1OC [Example 85, 4-[(3,5-Difluoropyridin-4-yl)methyl]-2-(3,4-dimethoxyphenyl)-2H-1,2,4-benzothiadiazin-3(4H)-one 1,1-dioxide] |
| 74.1 | COc1ccc(N2C(=O)N(Cc3ncc(C)cc3C)c3ccccc3S2(=O)=O)cc1OC [Example 86, 4-[(3,5-Dimethylpyridin-2-yl)methyl]-2-(3,4-dimethoxyphenyl)-2H-1,2,4-benzothiadiazin-3(4H)-one 1,1-dioxide] |
| 35.5 | CSc1cccc(N2C(=O)N(Cc3ncccc3C)c3ccccc3S2(=O)=O)c1 [Example 87, 4-[(3-Methylpyridin-2-yl)methyl]-2-[3-(methylsulfanyl)phenyl]-2H-1,2,4-benzothiadiazin-3(4H)-one 1,1-dioxide] |
| 28.2 | COc1ccc(N2C(=O)N(Cc3ncccc3F)c3ccccc3S2(=O)=O)cc1OC [Example 88, 2-(3,4-Dimethoxyphenyl)-4-[(3-fluoropyridin-2-yl)methyl]-2H-1,2,4-benzothiadiazin-3(4H)-one 1,1-dioxide] |
| 38.9 | COc1ccc(N2C(=O)N(Cc3ncc(Br)cc3F)c3ccccc3S2(=O)=O)cc1OC [Example 89, 4-[(5-Bromo-3-fluoropyridin-2-yl)methyl]-2-(3,4-dimethoxyphenyl)-2H-1,2,4-benzothiadiazin-3(4H)-one 1,1-dioxide] |
| 3.02 | COc1ccc(N2C(=O)N(Cc3c(Cl)cncc3Cl)c3ccccc3S2(=O)=O)cc1OC [Example 90, 4-[(3,5-Dichloropyridin-4-yl)methyl]-2-(3,4-dimethoxyphenyl)-2H-1,2,4-benzothiadiazin-3(4H)-one 1,1-dioxide] |
| 38 | COc1ccc(N2C(=O)N(Cc3c(F)cccc3Cl)c3ccncc3S2(=O)=O)cc1OC [Example 91, 4-(2-Chloro-6-fluorobenzyl)-2-(3,4-dimethoxyphenyl)-2H-pyrido[4,3-e][1,2,4]thiadiazin-3(4H)-one 1,1-dioxide] |
